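Tested at 5 concentrations; 48 h exposure; 96-well plates; endpoints linearly interpolated, else capped at highest concentration. The concentration for 50% growth inhibition is given as GI50.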 Active and inactive are the calls of the source. Rule as the data show it: active = GI50 up to about 1.1 µM and inactive = higher.
Tests used:
Assay in all cases: NCI-60 cell line screen, 48 h
786-0 = test system: 786-0
A498 = test system: A498
CAKI-1 = test system: CAKI-1
COLO 205 = test system: COLO 205
DU-145 = test system: DU-145
HCC 2998 = test system: HCC 2998
HL-60 = test system: HL-60
HOP-92 = test system: HOP-92
HT-29 = test system: HT-29
KM-20L2 = test system: KM-20L2
LOX IMVI = test system: LOX IMVI
Malme-3M = test system: Malme-3M
NCI-H522 = test system: NCI-H522
OVCAR-5 = test system: OVCAR-5
SF-268 = test system: SF-268
SK-MEL-28 = test system: SK-MEL-28
SK-MEL-5 = test system: SK-MEL-5
SN12C = test system: SN12C
SNB-75 = test system: SNB-75
T47D = test system: T47D

Structure (SMILES) | GI50 (786-0) | GI50 (A498) | GI50 (CAKI-1) | GI50 (COLO 205) | GI50 (DU-145) | GI50 (HCC 2998) | GI50 (HL-60) | GI50 (HOP-92) | GI50 (HT-29) | GI50 (KM-20L2) | GI50 (LOX IMVI) | GI50 (Malme-3M) | GI50 (NCI-H522) | GI50 (OVCAR-5) | GI50 (SF-268) | GI50 (SK-MEL-28) | GI50 (SK-MEL-5) | GI50 (SN12C) | GI50 (SNB-75) | GI50 (T47D)
O=C(Nc1cccc(C(F)(F)F)c1)C(=O)C(C(=O)c1ccc2ccccc2c1)C1OC(=O)c2ccccc21 (stereo unspecified) | 4.21 µM (inactive) | 9.93 µM (inactive) | 12.4 µM (inactive) | 10.9 µM (inactive) | 26.5 µM (inactive) | 10.8 µM (inactive) | 7.69 µM (inactive) | 22.8 µM (inactive) | 13.5 µM (inactive) | 15.8 µM (inactive) | 4.23 µM (inactive) | 6.81 µM (inactive) | 8.26 µM (inactive) | 14.3 µM (inactive) | 5.05 µM (inactive) | 6.79 µM (inactive) | 10.5 µM (inactive) | 13.2 µM (inactive) | 12 µM (inactive) | 8.99 µM (inactive)
CC(=O)Nc1ccc(/C=C/C(=O)c2sc(C(N)=S)nc2C)cc1 | > 100 µM (inactive) | > 100 µM (inactive) | > 100 µM (inactive) | > 100 µM (inactive) | – | > 100 µM (inactive) | > 100 µM (inactive) | > 100 µM (inactive) | > 100 µM (inactive) | > 100 µM (inactive) | > 100 µM (inactive) | > 100 µM (inactive) | > 100 µM (inactive) | > 100 µM (inactive) | > 100 µM (inactive) | > 100 µM (inactive) | > 100 µM (inactive) | > 100 µM (inactive) | > 100 µM (inactive) | –
CCN(CC)CCn1c2ccccc2c(=O)c2c(O)ccc(O)c21 | 34.1 µM (inactive) | 74.3 µM (inactive) | 35.5 µM (inactive) | 20.6 µM (inactive) | > 59.4 µM (inactive) | > 41.3 µM (inactive) | 6.49 µM (inactive) | 19.4 µM (inactive) | 35.9 µM (inactive) | > 100 µM (inactive) | 15.1 µM (inactive) | 24.7 µM (inactive) | 15.4 µM (inactive) | 55.7 µM (inactive) | 30.5 µM (inactive) | 33.2 µM (inactive) | 21.3 µM (inactive) | 30.8 µM (inactive) | 22.3 µM (inactive) | 18.2 µM (inactive)
Cc1cc2c(s1)C(=O)c1sccc1C2=O | 1.83 µM (inactive) | 1.78 µM (inactive) | 1.75 µM (inactive) | 1.9 µM (inactive) | 1.83 µM (inactive) | 1.75 µM (inactive) | 3.34 µM (inactive) | 1.52 µM (inactive) | 2.04 µM (inactive) | 2.46 µM (inactive) | 0.152 µM (active) | 0.168 µM (active) | 0.552 µM (active) | 1.86 µM (inactive) | 0.762 µM (active) | 0.2 µM (active) | 0.162 µM (active) | 0.388 µM (active) | 0.397 µM (active) | 1.63 µM (inactive)
OCC(O)COc1c(Cl)ccc(Cl)c1Cl (stereo unspecified) | > 100 µM (inactive) | > 100 µM (inactive) | > 100 µM (inactive) | > 100 µM (inactive) | – | > 100 µM (inactive) | > 100 µM (inactive) | > 100 µM (inactive) | > 100 µM (inactive) | > 100 µM (inactive) | > 100 µM (inactive) | > 100 µM (inactive) | > 100 µM (inactive) | > 100 µM (inactive) | > 100 µM (inactive) | > 100 µM (inactive) | > 100 µM (inactive) | > 100 µM (inactive) | > 100 µM (inactive) | –

— ChEMBL document CHEMBL1201862, “PubChem BioAssay data set” (2004)
